Source: publication PMC12309968 (iScience, 2025)
In brackets after ≈: the same amount, converted by molar mass. Entries after “also recorded” stand apart in the source; their conditions may differ. Where two headings read alike, the source gives them in different places. Positions of bridges follow the written chain, without caps; N, C: chain ends. Non-standard residues stand in square brackets, D forms with d. Residues, ends and D or L forms follow the SMILES beside them. *: point of attachment. Octanoyl = CCCCCCCC(=O)*; Dab = NCC[C@H](N)C(=O)O; Abu = CC[C@H](N)C(=O)O

How the values were obtained:
E. coli SOS response = conditions: cited from earlier work
[1] = tested on: neutrophil/platelet aggregates; type: cell-based, human
[2] = tested on: monocyte/platelet aggregates; type: cell-based, human
[3] = tested on: Stx2a binding to TLR4-expressing Gb3Cer-lacking human neutrophils; conditions: cited from earlier work
[4] = tested on: Raji cells (Gb3Cer-expressing); conditions: cited from earlier work
E. coli = conditions: cited from earlier work
SOS response = conditions: cited from earlier work
Shigella = conditions: cited from earlier work
[5] = tested on: interaction between LPS and TLR4; conditions: cited from earlier work
[6] = tested on: human renal tubular cells; conditions: cited from earlier work
cynomolgus monkey = conditions: in vivo; cited from earlier work
Stx2a = Stx2a (Escherichia phage 933W, UniProt P09385+P09386); assay: biochemical; type: binding, E. coli (C600-933W strain)
[7] = target: lactate dehydrogenase A (LDH-A), tetrameric form (Homo sapiens, UniProt P00338); assay: biochemical; type: binding
[8] = tested on: Stx2a binding to TLR4-expressing Gb3Cer-lacking human neutrophils
CD-1 mice = conditions: mouse, in vivo, iv
[9] = in vivo; cited from earlier work

Compound: CO[C@@]12[C@H](COC(N)=O)C3=C(C(=O)C(C)=C(N)C3=O)N1C[C@@H]1N[C@@H]12 [mitomycin C]
- MIC/SIC ratio (E. coli SOS response): 1.4
- SOS-inducing action (E. coli SOS response): strong SOS-inducing actions

Compound: Triton X-100
- hemolysis (human erythrocytes): no hemolysis occurred, unlike treatment with Triton X-100, chosen as a positive control

Compound: CNC(C)C1CCC(N)C(OC2C(N)CC(N)C(OC3OCC(C)(O)C(NC)C3O)C2O)O1 (stereo not drawn) [gentamicin]
- MIC/SIC ratio (E. coli SOS response): 1.8
- SOS-inducing action (E. coli SOS response): poor

Compound: polymyxin B
- effect on neutrophil/platelet aggregates [1]: ineffective at these concentrations
- effect on monocyte/platelet aggregates [2]: ineffective at these concentrations
- IC50 in inhibiting the binding of Stx2a to human neutrophils [3]: 3.5 µg/mL
- effect on Stx2a/TLR4 interactions, binding of Stx2a to leukocytes [3]: effectively impairs the Stx2a/TLR4 interactions; also recorded: does block the binding of Stx2a to leukocytes at μg/mL concentrations that are also highly bactericidal
- lack of protection of Gb3Cer-expressing Raji cells from Stx2a [4]: as previously shown with polymyxin B
- MIC (E. coli): 1 µg/mL
- concentration eliciting the SOS response (SOS response): higher than 1 μg/mL
- concentration inducing release of considerable amounts of Stx by Shigella (Shigella): higher than 1 μg/mL
- block of LPS/TLR4 interaction [5]: known to block the interaction between the bacterial endotoxin (lipopolysaccharide [LPS]) and TLR4
- IC50, cytotoxicity to human renal tubular cells [6]: 18 µg/mL
- tolerability (cynomolgus monkey): had to be euthanized because of severe nephrotoxicity

Compound: CCCCCCCC(=O)N[C@@H](CCN)C(=O)N[C@H](C(=O)N[C@@H](C(=O)N[C@H]1CCNC(=O)[C@H]([C@@H](C)O)NC(=O)[C@H](CCN)NC(=O)[C@H](CC)NC(=O)[C@H](CC(C)C)NC(=O)[C@@H](Cc2ccccc2)NC(=O)[C@H](CCN)NC1=O)[C@H](C)O)[C@@H](C)O [NAB815] (Octanoyl-[Dab]T[dT][Dab][Dab][dF]L[Abu][Dab]T; lactam 4-C)
- Kd (Stx2a): 0.05 µM
- maximum reduction (quenching) of Stx2a fluorescence (Stx2a): approximately 10%
- Kd [7]: 10 µM
- IC50 in inhibiting the binding of Stx2a to human neutrophils [8]: 0.057 µg/mL
- necrotic leukocytes (7-AAD+) (human leukocytes): the number of necrotic cells was negligible
- hemolysis (human erythrocytes): no hemolysis occurred
- serum creatinine and urea (CD-1 mice): No changes in serum creatinine and urea were found
- IC50, cytotoxicity to human renal tubular cells [6]: 334 µg/mL (≈ 284 µM)
- cytotoxicity lower than that of polymyxin B (fold) [6]: approximately 20 times
- serum creatinine, blood urea nitrogen, urinary biomarkers (cynomolgus monkey): no significant increase in serum creatinine, blood urea nitrogen, or in the urinary biomarkers tested
- tolerability (cynomolgus monkey): well tolerated
- excretion into urine relative to polymyxin B [9]: approximately 10 times

Compound: O=C(O)c1cn(C2CC2)c2cc(N3CCNCC3)c(F)cc2c1=O [ciprofloxacin]
- MIC/SIC ratio (E. coli SOS response): 8
- SOS-inducing action (E. coli SOS response): frequently used as a model antibiotic inducing the SOS response
